{"source": "patent US20200291082A1", "about": "“PREVENTION AND TREATMENT OF GRAFT-VERSUS-HOST-DISEASE WITH DEFENSINS” (priority 2017, published 2020)", "key": {"[1]": {"system": "Dextran Sodium Sulphate induced colitis", "experiment": "prophylactic murine 7-day Dextran Sodium Sulphate induced colitis model, oral and s.c. hBD2 versus oral cyclosporine (Example 4)", "format": "in vivo, C57BL/6 mice", "excerpt": "Anti-inflammatory effect of oral and s.c. administration of hBD2 versus oral cyclosporine in a prophylactic, murine, 7-day, Dextran Sodium Sulphate induced colitis model.\n80 male C57BL/6 mice housed in groups of five per cage were allocated to 7 different treatment groups. All animals had their drinking water supplemented with DSS 3% for 7 days to induce colitis characterized by epithelial damage, disruption of crypt architecture and a moderate inflammation characterized by accumulation of mononuclears and neutrophils in mucosa and submucosa. The animals were treated with oral hBD2 dosed at 0.6 mg/kg BID or 0.4 mg/kg TID; hBD2 dosed s.c. at 0.15 mg/kg BID or 0.1 mg/kg TID; or cyclosporine 50 mg/kg OD or water for 7 days.\nClinical assessment was conducted as per a scoring system (0=no blood in stool; 1=evidence of blood in stool and 2=severe bleeding). The animals were sacrificed on day 7 and colon removed for histological assessment."}, "[2]": {"system": "CD4+CD25+ Tcell transfer induced colitis", "experiment": "therapeutic murine 14 weeks CD4+CD25+ Tcell transfer induced colitis model (Example 6)", "format": "in vivo, SCID mice", "settings": "hBD2 1 mg/kg s.c. OD, Dexamethasone 0.3 mg/kg i.p. OD, Enbrel 100 μg/mouse s.c. twice weekly", "excerpt": "Efficacy of s.c. administration of hBD2 versus s.c. anti TNF-α (Enbrel) and intraperitoneal dexamethasone in a therapeutic, murine, 14 weeks, CD4+CD25+ Tcell transfer induced colitis model.\n70 female BALB/c mice housed in groups of five per cage were allocated to 7 different treatment groups. Colitis was induced in SCID mice by transplantation of CD4+CD25+ Tcells from BALB/c mice. Lymphocytes isolated from spleen and lymph nodes from BALB/c mice were subjected to negative selection of CD4+ Tcells. Afterwards, CD4+CD25+ cells were positively isolated by binding to the beads from the CD4+ Tcell suspensions and the CD4+CD25− were collected from the supernatant. The animals were treated with hBD2, 0.1 mg/kg s.c. OD; 1 mg/kg s.c. OD or 3 mg/kg s.c. OD or with mouse anti TNFα 100 μg/mouse s.c. twice weekly or with dexamethasone 0.3 mg/kg intraperitoneally OD or PBS s.c. as vehicle from day 7 and 86 consecutive days.\nClinical assessment was based on body weight loss, stool consistency and presence of blood per rectum. The animals were sacrificed on day 95 and colon removed for assessment of weight and myeloperoxidase activity."}, "[3]": {"system": "gut microbiota in high fat diet murine model", "experiment": "prophylactic treatment with defensins in murine high fat diet model, gut microbiota (Example 7)", "format": "in vivo, mice", "excerpt": "Protection and preservation of gut microbiota by prophylactic treatment with defensins. Mice: Mice were housed in trios, 4 cages per group. Feed intake was registered daily just before lights were turned off at 6 pm. Individual mice were subjected to experimental procedures in altered order both group and cage wise. Mice were kept at room temperature under a 12-hour light/dark cycle at SPF standard conditions. Diets: For dosing, the average weight was estimated to be 25 grams per mouse. Mice eat approximately 3 grams of feed per mouse per day. Treatment regime: Mice were fed either a high fat diet (HFD) or a low fat (LF) control diet. The HFD contained 4 subgroups; 1 hBD2, 1 HD5, 1 hBD2/HD5 and 1 standard HFD without supplementation of defensins (FIG. 3). Defensin concentration was 1,2 mg hBD2 per kg mouse per day. HD5 was given in equimolar concentration to hBD2. […] Microbial analyses were carried out to study the microbiota of the intestine. Longitudinal 16S characterization was conducted on 4 paired samples from 60 mice, 240 samples in total. Each mouse was sampled prior to diet change, 1 week post diet change, 4 weeks post diet change and at termination, thus ensuring a thorough characterization of the faecal microbiota as a result of defensin treatment."}, "[4]": {"system": "house dust mite driven model of allergic asthma", "experiment": "prophylactic intranasal versus oral hBD2 in murine house dust mite driven model of allergic asthma (Example 9)", "format": "in vivo, BALB/c mice", "procedure": "To determine and assess the efficacy of prophylactic treatment with intranasal (IN) versus oral defensins in a murine house dust mite driven model of allergic asthma.\nTreatment regime: Female 7-10 weeks old BALB/c mice were randomly allocated into 5 study groups one day prior to study start and subcutaneously (SC) sensitized to house dust mite (100 μg HDM in 200 μL saline plus Freund's complete adjuvant in 0.9% saline). The mice were treated with hBD2 orally and intranasally respectively at a dose of 1.2 mg/kg/day (0.4 mg/kg TID) starting on day 12 in the morning and continued TID at approximately 6 hours intervals. The last dose was administered on day 14 one hour prior to challenge. The total number of doses were […] hBD2. Mice were then intranasally (IN) challenged with HDM on day 14 (HDM 25 μg in 50 μL of saline) (FIG. 4).\nAirway inflammation: At 48 hours post challenge, bronchoalveolar lavage was performed washing the lungs with 3 volumes of cold PBS (0.4; 0.3 and 0.3 mL, total 1 mL). Total and differential leucocyte cell counts were determined on an automated haematological analyser Sysmex XT-2000iV.\nLung function: Starting 48 hours after HDM challenge, measurements of lung resistance and lung compliance were carried out after methacholine challenge (3.125 MCH1; 6.25 MCH2; 12.5 MCH3 and 25 mg/mL MCH4) by anaesthetized, cannulated mice using DSI's Buxco Finepoint RC system. Data are represented as airway resistance at […] methacholine and as dose responsive curves.\nLung sampling for cytokine analysis: After completion of every BAL, lungs were removed from the thorax, snap frozen in liquid nitrogen and stored frozen at −80 degrees Celsius until analysis of cytokine concentration of TNF-α, IL-4, IL-5, IL-6, IL-9, IL-13 and IL-33 in lung homogenate by ELISA."}, "[5]": {"settings": "all four hBD2 dosing groups (oral 0.6 mg/kg BID, 0.4 mg/kg TID; s.c. 0.15 mg/kg BID, 0.1 mg/kg TID), cyclosporine 50 mg/kg OD, 7 days"}, "[6]": {"settings": "colon, prophylactic treatment with hBD2"}, "[7]": {"settings": "hBD2 both oral and intranasal TID, day 12 to day 14 (total 2.0 mg/kg in 8 administrations), versus HDM challenged vehicle"}, "[8]": {"settings": "intranasally administered, not statistically significantly different from the control"}}, "note": "Entries after “also recorded” stand apart in the source; their conditions may differ. No end group written: not given here.", "data": [{"substance": "human beta defensin 2 (GIGDPVTCLKSGAICHPVFCPRRYKQIGTCGLPGTKCCKKP; not fully specified (bridges); ends and bridges not checked; listed as Homo sapiens) [hBD2]", "values": [{"measurement": "clinical score, s.c. versus oral dosing", "setting": "[1]; FIG. 15", "result": "seemed more efficacious than oral dosing"}, {"measurement": "clinical scores", "setting": "[1]; [5]", "result": "highly statistically significant improvement; also recorded: statistical significant effect of hBD2 on par with cyclosporine"}, {"measurement": "maintenance of colon length", "setting": "[1]; [5]", "result": "highly statistically significant improvement; also recorded: statistical significant effect of hBD2 on par with cyclosporine"}, {"measurement": "clinical score, TID versus BID dosing", "setting": "[1]; both administration routes", "result": "more efficacious than BID dosing; also recorded: superiority of TID dosing of hBD2 over BID dosing"}, {"measurement": "myeloperoxidase activity", "setting": "[2]; colon, day 95", "result": "statistically significant and similar effect; also recorded: on par with 100 μg/mouse anti TNF-α s.c. twice weekly (Enbrel) and 0.3 mg/kg dexamethasone intraperitoneally OD"}, {"measurement": "clinical score (body weight loss, stool consistency, presence of blood per rectum)", "setting": "[2]", "result": "statistically significant and similar effect on clinical score; also recorded: on par with 100 μg/mouse anti TNF-α s.c. twice weekly (Enbrel) and 0.3 mg/kg dexamethasone intraperitoneally OD"}, {"measurement": "colon weight", "setting": "[2]; day 95", "result": "statistically significant and similar effect on colon weight; also recorded: on par with 100 μg/mouse anti TNF-α s.c. twice weekly (Enbrel) and 0.3 mg/kg dexamethasone intraperitoneally OD"}, {"measurement": "weight gain", "setting": "[3]; HFD plus hBD2 (1,2 mg per kg per day) versus HFD reference group, 10 week study period", "result": "gained significantly less weight"}, {"measurement": "abundance of Barnesiella", "setting": "[3]; [6]", "result": "statistically significant increase in abundance of Barnesiella"}, {"measurement": "abundance of Lactobacillaceae", "setting": "[3]; [6]", "result": "trend towards lower abundance"}, {"measurement": "steatosis (intra hepatocytic fat accumulation)", "setting": "[3]; liver, HFD mice with prophylactic oral hBD-2 1.2 mg/kg daily, 1.2 mg/kg", "result": "minimal intra hepatocyte fat accumulation; also recorded: minimal steatosis"}, {"measurement": "microbial presence and abundance (unifrac analysis)", "setting": "[3]; prophylactic oral defensins in high fat diet", "result": "affected primarily the microbial presence"}, {"measurement": "airway resistance", "setting": "[4]; [7]", "result": "effectively inhibited the increase of airway resistance"}, {"measurement": "pulmonary compliance", "setting": "[4]; [7]", "result": "effectively inhibited"}, {"measurement": "IL-4 in lung tissue homogenates", "setting": "[4]; [8]", "result": "trend towards lowering"}, {"measurement": "IL-5 in lung tissue homogenates", "setting": "[4]; [8]", "result": "trend towards lowering"}, {"measurement": "IL-6 in lung tissue homogenates", "setting": "[4]; [8]", "result": "trend towards lowering"}, {"measurement": "IL-9 in lung tissue homogenates", "setting": "[4]; [8]", "result": "trend towards lowering"}, {"measurement": "IL-13 in lung tissue homogenates", "setting": "[4]; [8]", "result": "trend towards lowering"}, {"measurement": "TNF-α in lung tissue homogenates", "setting": "[4]; [8]", "result": "trend towards lowering"}, {"measurement": "IL-4 concentration in lung tissue homogenates", "setting": "[4]; oral administration", "result": "complete normalization of cytokine concentrations"}, {"measurement": "IL-6 concentration in lung tissue homogenates", "setting": "[4]; oral administration", "result": "complete normalization of cytokine concentrations"}, {"measurement": "IL-9 concentration in lung tissue homogenates", "setting": "[4]; oral administration", "result": "complete normalization of cytokine concentrations"}, {"measurement": "IL-13 concentration in lung tissue homogenates", "setting": "[4]; oral administration", "result": "complete normalization of cytokine concentrations"}, {"measurement": "L-5 (31c) concentration in lung tissue homogenates", "setting": "[4]; oral administration", "result": "complete normalization of cytokine concentrations"}, {"measurement": "TNF-α concentration in lung tissue homogenates", "setting": "[4]; oral administration", "result": "complete normalization of cytokine concentrations"}, {"measurement": "neutrophil counts in BALF", "setting": "[4]; oral application", "result": "significantly inhibited neutrophil counts"}]}]}
